# How the values were obtained:
# [1] = biological target: human VEGFR-2 (Homo sapiens, UniProt P35968); experiment: biochemical
# [2] = tested on: HepG2 cell lines; experiment: cells; assay type: cell-based; settings: Homo sapiens, HepG2, read-out: IC50 proliferation of HepG2 (abstract)
# [3] = tested on: MCF7 cell lines; experiment: cells; assay type: cell-based; settings: Homo sapiens, MCF7, read-out: IC50 proliferation of MCF7 (abstract)
# [4] = tested on: Vero cell line; experiment: MTT safety assay, Vero normal cells; assay type: cell-based; settings: Chlorocebus sabaeus, read-out: IC50 against normal cell line (Vero)
# [5] = tested on: MCF7 cells; experiment: Annexin V / PI flow cytometry apoptosis analysis; assay type: cell-based; settings: 30.95 µM
# [6] = tested on: TNF-α; experiment: qRT-PCR of TNF-α in MCF7 cells; assay type: cell-based; settings: treated MCF7 cells vs control
# [7] = tested on: IL-2; experiment: qRT-PCR of IL-2 in MCF7 cells; assay type: cell-based; settings: treated MCF7 cells vs control
# [8] = tested on: MCF7 cells; experiment: Scratch; assay type: cell-based
# [9] = Determination of LD50 in mice; assay type: in vivo; settings: male, BALB/c, mouse, in vivo, po
# [10] = tested on: BALB/c male mice; experiment: Determination of LD50 in mice; assay type: in vivo; settings: mice, 1 and 3 gm/kg single dose orally, 24 h
# [11] = Liver function test; settings: mice; for ALT level: control 25.2 ± 1.2; for AST level: control 29.1 ± 1.1
# [12] = biological target: Human EGFR (Homo sapiens, UniProt P00533); experiment: In vitro multikinase assay
# [13] = biological target: Human PDGFRβ (Homo sapiens, UniProt P09619); experiment: In vitro multikinase assay
# [14] = 100 mg/kg oral single dose (group II)
# [15] = 200 mg/kg oral single dose (group III)
# Sequence of Human EGFR (P00533 25-1210): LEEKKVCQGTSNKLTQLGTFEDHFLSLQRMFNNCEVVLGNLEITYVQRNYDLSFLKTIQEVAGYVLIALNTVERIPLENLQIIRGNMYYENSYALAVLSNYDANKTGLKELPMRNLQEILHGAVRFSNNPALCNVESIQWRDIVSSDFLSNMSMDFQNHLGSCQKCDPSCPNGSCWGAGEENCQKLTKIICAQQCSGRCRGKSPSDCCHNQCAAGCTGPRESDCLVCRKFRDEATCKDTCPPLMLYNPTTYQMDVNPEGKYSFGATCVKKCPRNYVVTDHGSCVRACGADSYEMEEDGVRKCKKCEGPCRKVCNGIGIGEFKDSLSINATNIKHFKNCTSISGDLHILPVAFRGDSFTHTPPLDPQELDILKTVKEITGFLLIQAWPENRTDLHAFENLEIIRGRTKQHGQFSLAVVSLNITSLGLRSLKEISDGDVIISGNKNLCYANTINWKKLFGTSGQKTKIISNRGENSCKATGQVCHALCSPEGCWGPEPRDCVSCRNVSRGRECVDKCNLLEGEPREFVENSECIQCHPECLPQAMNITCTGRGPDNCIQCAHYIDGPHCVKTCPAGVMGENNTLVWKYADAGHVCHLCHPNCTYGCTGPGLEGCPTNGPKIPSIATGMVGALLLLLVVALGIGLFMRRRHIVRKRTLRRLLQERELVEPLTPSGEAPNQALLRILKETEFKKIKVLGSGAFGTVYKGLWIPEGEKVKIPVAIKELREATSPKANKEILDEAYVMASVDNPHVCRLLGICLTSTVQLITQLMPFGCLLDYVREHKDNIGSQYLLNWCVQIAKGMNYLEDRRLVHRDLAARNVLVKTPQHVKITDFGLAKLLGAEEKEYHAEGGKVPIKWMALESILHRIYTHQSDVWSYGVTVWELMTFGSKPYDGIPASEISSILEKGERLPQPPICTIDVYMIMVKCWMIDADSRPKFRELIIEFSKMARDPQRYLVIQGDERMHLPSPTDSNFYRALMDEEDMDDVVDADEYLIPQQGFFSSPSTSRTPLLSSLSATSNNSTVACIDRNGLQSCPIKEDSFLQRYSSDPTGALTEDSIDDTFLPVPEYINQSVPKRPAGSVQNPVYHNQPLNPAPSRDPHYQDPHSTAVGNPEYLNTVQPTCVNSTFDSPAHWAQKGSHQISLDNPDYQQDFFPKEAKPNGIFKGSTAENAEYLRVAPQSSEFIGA
# Sequence of human VEGFR-2 (P35968 20-1356): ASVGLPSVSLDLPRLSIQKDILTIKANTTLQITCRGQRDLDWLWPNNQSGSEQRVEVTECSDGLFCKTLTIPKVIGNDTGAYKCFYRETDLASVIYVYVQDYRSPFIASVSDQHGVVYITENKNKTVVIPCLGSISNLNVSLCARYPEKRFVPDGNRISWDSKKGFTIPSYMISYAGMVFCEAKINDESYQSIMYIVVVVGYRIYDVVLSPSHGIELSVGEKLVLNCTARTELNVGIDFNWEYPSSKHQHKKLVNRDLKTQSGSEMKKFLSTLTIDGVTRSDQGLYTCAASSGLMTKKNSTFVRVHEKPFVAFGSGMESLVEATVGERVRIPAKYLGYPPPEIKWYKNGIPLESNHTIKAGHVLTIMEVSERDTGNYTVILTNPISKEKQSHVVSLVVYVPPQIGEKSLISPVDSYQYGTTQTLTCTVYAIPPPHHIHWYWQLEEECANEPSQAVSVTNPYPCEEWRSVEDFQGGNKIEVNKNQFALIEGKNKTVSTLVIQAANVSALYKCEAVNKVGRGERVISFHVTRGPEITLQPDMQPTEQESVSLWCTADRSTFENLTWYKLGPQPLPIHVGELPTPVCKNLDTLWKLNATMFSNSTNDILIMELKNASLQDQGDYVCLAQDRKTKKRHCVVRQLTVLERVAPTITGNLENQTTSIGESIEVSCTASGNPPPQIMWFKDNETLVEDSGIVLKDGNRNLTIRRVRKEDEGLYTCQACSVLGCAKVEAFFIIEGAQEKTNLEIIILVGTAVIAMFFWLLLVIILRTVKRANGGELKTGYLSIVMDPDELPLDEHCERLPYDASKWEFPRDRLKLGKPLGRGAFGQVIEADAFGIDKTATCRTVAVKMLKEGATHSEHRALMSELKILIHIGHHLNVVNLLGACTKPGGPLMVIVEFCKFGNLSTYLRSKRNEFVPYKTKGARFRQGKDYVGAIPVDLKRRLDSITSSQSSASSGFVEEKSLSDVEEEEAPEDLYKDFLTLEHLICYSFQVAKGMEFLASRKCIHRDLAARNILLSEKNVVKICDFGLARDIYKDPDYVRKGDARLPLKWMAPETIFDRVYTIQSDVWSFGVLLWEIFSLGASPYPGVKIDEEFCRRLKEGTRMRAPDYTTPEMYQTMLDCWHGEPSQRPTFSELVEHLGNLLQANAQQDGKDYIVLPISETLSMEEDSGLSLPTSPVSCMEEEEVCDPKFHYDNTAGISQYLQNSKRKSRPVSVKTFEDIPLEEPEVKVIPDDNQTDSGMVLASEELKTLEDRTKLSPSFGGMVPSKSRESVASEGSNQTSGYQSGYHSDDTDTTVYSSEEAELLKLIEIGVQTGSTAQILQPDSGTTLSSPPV
# Sequence of Human PDGFRβ (P09619 33-1106): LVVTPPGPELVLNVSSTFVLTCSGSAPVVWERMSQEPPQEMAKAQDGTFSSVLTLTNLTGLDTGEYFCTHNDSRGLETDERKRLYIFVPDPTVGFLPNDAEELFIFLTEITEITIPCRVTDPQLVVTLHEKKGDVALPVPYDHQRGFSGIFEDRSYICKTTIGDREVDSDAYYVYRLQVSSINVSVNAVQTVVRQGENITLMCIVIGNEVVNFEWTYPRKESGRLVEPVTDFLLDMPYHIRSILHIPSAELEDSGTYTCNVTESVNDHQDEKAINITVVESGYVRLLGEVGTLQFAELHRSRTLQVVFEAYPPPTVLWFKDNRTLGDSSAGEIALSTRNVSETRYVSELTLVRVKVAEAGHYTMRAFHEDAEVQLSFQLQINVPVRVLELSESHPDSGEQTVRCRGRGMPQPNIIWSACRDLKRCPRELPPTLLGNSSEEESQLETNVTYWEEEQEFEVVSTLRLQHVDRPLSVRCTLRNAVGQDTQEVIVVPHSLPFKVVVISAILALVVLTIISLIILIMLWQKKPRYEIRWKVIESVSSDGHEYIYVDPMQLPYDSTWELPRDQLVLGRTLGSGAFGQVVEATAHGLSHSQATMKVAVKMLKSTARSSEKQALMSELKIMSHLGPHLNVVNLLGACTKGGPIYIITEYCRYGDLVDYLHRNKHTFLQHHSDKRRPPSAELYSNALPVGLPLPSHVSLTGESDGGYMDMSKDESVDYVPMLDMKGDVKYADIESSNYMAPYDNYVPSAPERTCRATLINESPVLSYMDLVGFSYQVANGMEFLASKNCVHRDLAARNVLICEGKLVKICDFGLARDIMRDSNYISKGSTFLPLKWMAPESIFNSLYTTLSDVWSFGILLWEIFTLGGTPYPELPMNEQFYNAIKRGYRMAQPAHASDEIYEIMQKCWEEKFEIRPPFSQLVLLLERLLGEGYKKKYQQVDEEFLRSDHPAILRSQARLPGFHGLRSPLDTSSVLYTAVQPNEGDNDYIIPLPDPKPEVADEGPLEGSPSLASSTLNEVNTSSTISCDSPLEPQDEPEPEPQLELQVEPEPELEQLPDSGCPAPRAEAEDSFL
compound,measurement,setting,value
"CC(=NNC(=O)c1cccc(C)c1)c1ccc(NC(=O)Cn2c(=O)c3c(ncn3C)n(C)c2=O)cc1 [T-1-MBHEPA, 2-(3,7-dimethyl-2,6-dioxo-2,3,6,7-tetrahydro-1H-purin-1-yl)-N-(4-(1-(2-(3-methylbenzoyl)hydrazono)ethyl)phenyl)acetamide]",IC50,[1],121 ± 51 nM
same,IC50,[2],4610 nM
same,IC50,[3],4850 nM
same,IC50,[4],80000 nM
same,Apoptosis Early %,[5],7.22%
same,Apoptosis Late %,[5],2.72%
same,Apoptosis Total %,[5],21.35%
same,Necrosis %,[5],11.41%
same,Reduction of TNF-α production,[6],33%
same,Reduction of IL-2 production,[7],58%
same,Scratch area at 48 h,[8]; MCF7,892.6667
same,Scratch width at 48 h,[8]; MCF7,891.751
same,Area difference %,"[8]; MCF7, 48 h",71.333%
same,RM um,"[8]; MCF7, 48 h",1.485 um
same,Wound closure % um^2,"[8]; MCF7, 48 h",7.399 % um^2
same,Decrease of scratch width (healing and migration) within 48 h,"[8]; MCF7, 48 h, untreated 65.9 %",7.4%
same,LD50 at 24 h,[9],5000 mg/kg
same,Tolerability of the other doses,[10],well tolerated
same,ALT level,[11]; [14],25.3 ± 2.1
same,AST level,[11]; [14],29.2 ± 1.1
same,ALT level,[11]; [15],28.9 ± 2.1
same,AST level,[11]; [15],31.7 ± 1.8
same,IC50,[12],355 ± 14 nM
same,IC50,[13],179 ± 9 nM
